Among the data in patent US20240270741A1 (Cogent Biosciences, Inc., priority 2023, published 2024) are IC50 values, retold here.

The structures appear in SMILES notation. Structures can show the parent of a compound that is named as a salt.

FGFR2, sequence (P21802 399-821 limits assumed): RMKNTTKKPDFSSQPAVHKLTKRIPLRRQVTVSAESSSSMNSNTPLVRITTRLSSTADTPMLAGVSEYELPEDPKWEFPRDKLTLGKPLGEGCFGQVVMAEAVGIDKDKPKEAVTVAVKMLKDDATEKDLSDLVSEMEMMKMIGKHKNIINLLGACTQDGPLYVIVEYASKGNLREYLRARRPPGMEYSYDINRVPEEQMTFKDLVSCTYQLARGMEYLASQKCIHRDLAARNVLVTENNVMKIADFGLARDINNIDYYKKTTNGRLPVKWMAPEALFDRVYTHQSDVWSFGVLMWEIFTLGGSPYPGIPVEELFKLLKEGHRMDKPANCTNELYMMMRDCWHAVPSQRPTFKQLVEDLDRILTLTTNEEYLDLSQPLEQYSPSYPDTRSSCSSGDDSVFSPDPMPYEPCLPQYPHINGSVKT

One assay concerns the target FGFR2 (Homo sapiens, UniProt P21802). Nature of the assay: FGFR wild type enzyme assay (HTRF KinEASE-TK), FGFR2. The note with it: Enz FGFR2 (nM).
Turning to `N#Cc1cnn2cc(-c3ccc(N4CCCC4)nc3)cc(Sc3ccccn3)c12` [Example 95, 4-(2-pyridylsulfanyl)-6-(6-pyrrolidin-1-yl-3-pyridyl)pyrazolo[1,5-a]pyridine-3-carbonitrile], inhibition was half-maximal at 13 nM (IC50). As for `Cc1cccnc1Sc1cc(-c2cnn(C3CCNCC3)c2)cn2ncc(C#N)c12` [Example 65, 4-((3-methylpyridin-2-yl)thio)-6-(1-(piperidin-4-yl)-1H-pyrazol-4-yl)pyrazolo[1,5-a]pyridine-3-carbonitrile, HCl], the IC50 was determined as 4 nM. Same read-out and setting: the same measure for `Cc1ccncc1Sc1cc(-c2cnn([C@H]3CCCNC3)c2)cn2ncc(C#N)c12` [Example 80, 4-[(4-methyl-3-pyridyl)sulfanyl]-6-[1-[(3S)-3-piperidyl]pyrazol-4-yl]pyrazolo[1,5-a]pyridine-3-carbonitrile]: 8 nM.

The same assay, now with this note: Enz FGFR2 (nM), FGFR2 wild type enzyme.
With `Cc1c(-c2cc(Sc3ncccc3F)c3c(C#N)cnn3c2)cnn1C1CCC(N(C)C(=O)CN(C)C)CC1` (centres unmarked) [Example 173, N-(4-(4-(3-cyano-4-((3-fluoropyridin-2-yl)thio)pyrazolo[1,5-a]pyridin-6-yl)-5-methyl-1H-pyrazol-1-yl)cyclohexyl)-2-(dimethylamino)-N-methylacetamide], inhibition was half-maximal at 1 nM (IC50).

Compound `Cc1c(-c2cc(Sc3ncccc3F)c3c(C#N)cnn3c2)cnn1C1CC2CCC(C1)N2` (centres unmarked) [Example 203, 4-[(3-fluoro-2-pyridiyl)sulfonyl]-6-[1-[1-(1-prop-2-enoylazetidine-3-carbonyl)-4-piperidyl]pyrazol-4-yl]pyrazolo[1,5-a]pyridine-3-carbonitrile] showed an IC50 of 2 nM.

`Cc1c(-c2cc(Sc3ncccc3F)c3c(C#N)cnn3c2)cnn1C1CC2(CNC2)C1` [Example 209, 4-((3-fluoropyridin-2-yl)thio)-6-(5-methyl-1-(2-azaspiro[3.3]heptan-6-yl)-1H-pyrazol-4-yl)pyrazolo[1,5-a]pyridine-3-carbonitrile] registered an IC50 of 1 nM. Take `CC(=O)N1CC[C@]2(CC[C@@H](n3ncc(-c4cc(Sc5ncccc5F)c5c(C#N)cnn5c4)c3C)CC2)C1` [Example 225, 6-(1-((5r,8r)-2-acetyl-2-azaspiro[4.5]decan-8-yl)-5-methyl-1H-pyrazol-4-y)-4-((3-fluoropyridin-2-yl)thio)pyrazolo[1,5-a]pyridine-3-carbonitrile]: the IC50 amounted to 1 nM. The compound `CC(=O)N1CCO[C@@H](Cn2ncc(-c3cc(Sc4ncccc4F)c4c(C#N)cnn4c3)c2C)C1` [Example 280, (R)-6-(1-((4-acetylmorpholin-2-yl)methyl)-5-methyl-1H-pyrazol-4-yl)-4-((3-fluoropyridin-2-yl)thio)pyrazolo[1,5-a]pyridine-3-carbonitrile] gave a half-inhibitory concentration (IC50) of 12 nM. `Cc1c(-c2cc(Sc3ccccc3C#N)c3c(C#N)cnn3c2)cnn1C1CCN(C[C@@H](C)O)CC1` [Example 141, (R)-4-((2-cyanophenyl)thio)-6-(1-(1-(2-hydroxypropyl)piperidin-4-yl)-5-methyl-1H-pyrazol-4-yl)pyrazolo[1,5-a]pyridine-3-carbonitrile] came in with a concentration for half-maximal inhibition (IC50) of 1 nM. The compound `CN[C@]1(C)CC[C@@H](n2ncc(-c3cc(Sc4ccccc4C#N)c4c(C#N)cnn4c3)c2C)CC1` [Example 320, 4-((2-cyanophenyl)thio)-6-(5-methyl-1-((1r,4r)-4-methyl-4-(methylamino)cyclohexyl)-1H-pyrazol-4-yl)pyrazolo[1,5-a]pyridine-3-carbonitirle] yielded a half-inhibitory concentration (IC50) of 0.3 nM.

With `Cc1c(-c2cc(Sc3ncccc3F)c3c(C#N)cnn3c2)cnn1[C@H]1CC[C@@H](NS(C)(=O)=O)CC1` [Example 177, N-((1s,4s)-4-(4-(3-cyano-4-((3-fluoropyridin-2-yl)thio)pyrazolo[1,5-a]pyridin-6-yl)-5-methyl-1H-pyrazol-1-yl)cyclohexyl)methane-sulfonamide], 1 nM corresponded to half-maximal inhibition (IC50). Still for that read-out and setting: the same measure for `Cc1c(-c2cc(Sc3ncccc3F)c3c(C#N)cnn3c2)cnn1C1CCN([C@H](C)CO)CC1` [Example 147, (R)-4-((3-fluoropyridin-2-yl)thio)-6-(1-(1-(1-hydroxypropan-2-yl)piperidin-4-yl)-5-methyl-1H-pyrazol-4-yl)pyrazolo[1,5-a]pyridine-3-carbonitrile]: 2 nM; for `Cc1c(-c2cc(Sc3ccccc3C#N)c3c(C#N)cnn3c2)cnn1C[C@@H]1CCCNC1` [Example 170, 4-(2-cyanophenyl)sulfanyl-6-[5-methyl-1-[[(3R)-3-piperidyl]methyl]pyrazol-4-yl]pyrazolo[1,5-a]pyridine-3-carbonitrile]: 72 nM.

The same assay, now with this note: Enz FGFR2 (nM), FGFR2 wild type enzyme assay.
The compound `CC(C)(O)Cn1cc(-c2cc(Sc3ncccc3F)c3c(C#N)cnn3c2)cn1` [Example 490, 4-((3-fluoropyridin-2-yl)thio)-6-(1-(2-hydroxy-2-methylpropyl)-1H-pyrazol-4-yl)pyrazolo[1,5-a]pyridine-3-carbonitrile] yielded an IC50 of 2 nM. On the same count and under the same terms, the figure for `Cc1c(-c2cc(Sc3ccc(F)cc3C#N)c3c(C#N)cnn3c2)cnn1[C@H]1CC[C@](O)(CO)CC1` [Example 470, 4-((2-cyano-4-fluorophenyl)thio)-6-(1-((1s,4s)-4-hydroxy-4-(hydroxymethyl)cyclohex-yl)-5-methyl-1H-pyrazol-4-yl)pyrazolo[1,5-a]pyridine-3-carbonitrile] is 1 nM; for `N#Cc1ccccc1Sc1cc(-c2cnn(CCC(=O)N3CC[C@H](O)C3)c2)cn2ncc(C#N)c12` [Example 674, (S)-4-((2-cyanophenyl)thio)-6-(1-(3-(3-hydroxypyrrolidin-1-yl)-3-oxopropyl)-1H-pyrazol-4-yl)pyrazolo[1,5-a]pyridine-3-carbonitrile] it is 1 nM. The same measure, in the same setting: the figure for `Cc1nn([C@H]2CC[C@H](O)CC2)cc1-c1cc(Sc2ncccc2F)c2c(C#N)cnn2c1` [Example 442, 4-((3-fluoropyridin-2-yl)thio)-6-(1-((1r,4r)-4-hydroxycyclohexyl)-3-methyl-1H-pyrazol-4-yl)pyrazolo[1,5-a]pyridine-3-carbonitrile] is 8 nM; for `C[C@@H](O)CN1CC[C@H](n2cc(-c3cc(Sc4ccccc4C#N)c4c(C#N)cnn4c3)cn2)C1` [Example 678, 4-((2-cyanophenyl)thio)-6-(1-((S)-1-((R)-2-hydroxypropyl)pyrrolidin-3-yl)-1H-pyrazol-4-yl)pyrazolo[1,5-a]pyridine-3-carbonitrile] it is 0.4 nM; for `C[C@@H]1CN(c2ccc(-c3cc(Sc4ccccc4C#N)c4c(C#N)cnn4c3)cn2)C[C@H](C)O1` [Example 665, 4-((2-cyanophenyl)thio)-6-(6-((2S,6R)-2,6-dimethylmorpholino)pyridin-3-yl)pyrazolo[1,5-a]pyridine-3-carbonitrile] it is 1 nM.

`Cc1c(-c2cc(Sc3ccc(F)cc3C#N)c3c(C#N)cnn3c2)cnn1[C@@H]1CCC[C@H](O)C1` [Example 499, 4-((2-cyano-4-fluorophenyl)thio)-6-(1-((1R,3S)-3-hydroxycyclohexyl)-5-methyl-1H-pyrazol-4-yl)pyrazolo[1,5-a]pyridine-3-carbonitrile] registered an IC50 of 1 nM.

For `C[C@@H](O)C(=O)N1CCC(n2cc(-c3cc(Sc4ccc(F)cc4C#N)c4c(C#N)cnn4c3)cn2)CC1` [Example 502, (R)-4-((2-cyano-4-fluorophenyl)thio)-6-(1-(1-(2-hydroxypropanoyl)piperidin-4-yl)-1H-pyrazol-4-yl)pyrazolo[1,5-a]pyridine-3-carbonitrile], the IC50 was 1 nM. Still for that read-out and setting: the same measure for `CC(=O)N1CCC[C@H](n2cc(-c3cc(Sc4ccc(F)cc4C#N)c4c(C#N)cnn4c3)c(C)n2)C1` [Example 425, (S)-6-(1-(1-acetylpiperidin-3-yl)-3-methyl-1H-pyrazol-4-yl)-4-((2-cyano-4-fluorophenyl)thio)pyrazolo [1,5-a]pyridine-3-carbonitrile]: 6 nM; for `CC(=O)N[C@H]1CC[C@@H](n2cc(-c3cc(Sc4ccccc4C#N)c4c(C#N)cnn4c3)c(C)n2)CC1` [Example 394, N-((1s,4s)-4-(4-(3-cyano-4-((2-cyanophenyl)thio)pyrazolo [1,5-a]pyridin-6-yl)-3-methyl-1H-pyrazol-1-yl)cyclohexyl)acetamide]: 3 nM. `COC(=O)N1CCC[C@H](n2cc(-c3cc(Sc4ncccc4F)c4c(C#N)cnn4c3)cn2)C1` [Example 479, methyl (S)-3-(4-(3-cyano-4-((3-fluoropyridin-2-yl)thio)pyrazolo[1,5-a]pyridin-6-yl)-1H-pyrazol-1-yl)piperidine-1-carboxylate] registered an IC50 of 1 nM. Still for that read-out and setting: the same measure for `C[C@H](O)C(=O)N1CCC[C@H](n2cc(-c3cc(Sc4ccccc4C#N)c4c(C#N)cnn4c3)cn2)C1` [Example 532, 4-((2-cyanophenyl)thio)-6-(1-((S)-1-((S)-2-hydroxypropanoyl)piperidin-3-yl)-1H-pyrazol-4-yl)pyrazolo[1,5-a]pyridine-3-carbonitrile]: 0.5 nM; for `C[C@H](O)C(=O)N1CCC[C@@H](n2cc(-c3cc(Sc4ccccc4C#N)c4c(C#N)cnn4c3)cn2)C1` [Example 533, 4-((2-cyanophenyl)thio)-6-(1-((R)-1-((S)-2-hydroxypropanoyl)piperidin-3-yl)-1H-pyrazol-4-yl)pyrazolo[1,5-a]pyridine-3-carbonitrile]: 1 nM. Still for that read-out and setting: the figure for `CCn1cc(-c2cc(Sc3ccccc3C#N)c3c(C#N)cnn3c2)cn1` [Example 572, 4-((2-cyanophenyl)thio)-6-(1-ethyl-1H-pyrazol-4-yl)pyrazolo[1,5-a]pyridine-3-carbonitrile] is 1 nM.

In turn, `CC(=O)N1CCC(n2ncc(-c3cc(Sc4ncccc4F)c4c(C#N)cnn4c3)c2CO)CC1` [Example 423, 6-(1-(1-acetylpiperidin-4-yl)-5-(hydroxymethyl)-1H-pyrazol-4-yl)-4-((3-fluoropyridin-2-yl)thio)pyrazolo[1,5-a]pyridine-3-carbonitrile] returned an IC50 of 259 nM. As to `N#Cc1cnn2cc(-c3ccc(N4C[C@H](O)[C@@H](O)C4)nc3)cc(Sc3ncccc3F)c12` [Example 654, 6-(6-((3S,4S)-3,4-dihydroxypyrrolidin-1-yl)pyridin-3-yl)-4-((3-fluoropyridin-2-yl)thio)pyrazolo[1,5-a]pyridine-3-carbonitrile], the concentration for half-maximal inhibition (IC50) was determined as 3 nM.
